The experiment relates to patients with COPD. To be noted: 200 μg.
The mark [1] stands for this setting: high efficiency nebulizer, 24 hour time point.

A value given as a limit tells only on which side of the number the result lay.

Description: GIS 200 μg/0.5 mL oral inhalation via eFlow.
GIS 75 μg/0.5 mL oral inhalation via eFlow; 2. GIS 500 μg/0.5 mL oral; 3. GIS 1000 n/0.5 mL oral inhalation via eFlow.
The primary efficacy variable was serial spirometry throughout the 36 hour period after dosing. The spirometry assessments include forced expiratory volume in one second (FEV1), forced vital capacity (FVC), peak expiratory flow rate (PEFR), FEV1% of predicted normal.

For the compound `C[N+]1(C)CCC(OC(=O)C(O)(c2ccccc2)C2CCCC2)C1` (centres unmarked) [glycopyrrolate, 3-[(cyclopentylhydroxyphenylacetyl)oxy]-1,1-dimethylpyrrolidinium], for the setting “conventional jet nebulizer, 12 hr time point and beyond”, the “increase in FEV1 above baseline (% change from baseline)” value is given as at most 10%. Besides, the “increase in FEV1 above baseline” value (conventional jet nebulizer, any time point after 12 hr) is given as at most 100 mL. In addition, the “mean improvement in peak lung function (peak FEV1) compared to the same dose in the conventional jet nebulizer” value (high efficiency nebulizer vs conventional jet nebulizer) is given as “about 45 mL”. Besides, under setting [1], the “improvement in FEV1 above baseline (% change from baseline)” value was “greater than 10%” and the “improvement in lung function, FEV1 above baseline” value is “greater than 100 mL”.

These data come from patent US10940110B2, “Method and system for the treatment of chronic COPD with nebulized anticholinergic administrations” (Sunovion Respiratory Development Inc., priority 2008, dated 2021).
